# Results taken from ChEMBL document CHEMBL3297666, “Antibacterial inhibitors of Gram-positive thymidylate kinase: structure-activity relationships and chiral preference of a new hydrophobic binding region” (J Med Chem, 2014).
# pIC50: −log10 of the molar value. Activity calls are given as the source filed them. No cut-off for these calls is given here.
# Key:
# [1] = Retention time of the compound by LC-MS method; format: physicochemical
# [2] = Inhibition of Staphylococcus aureus TMK assessed as decrease in ATP production using dTDP and ADP as substrate after 3.5 hrs by luciferin/luciferase based luminescence analysis
# Streptococcus pyogenes = assay: Antibacterial activity against Streptococcus pyogenes ARC 2834 assessed as growth inhibition by broth microdilution method; format: functional
# [3] = test system: Staphylococcus epidermidis; assay: Antibacterial activity against Staphylococcus epidermidis ARC 323 assessed as growth inhibition by broth microdilution method; format: functional
# Enterococcus faecium = assay: Antibacterial activity against linezolid-resistant Enterococcus faecium ARC 1239 assessed as growth inhibition by broth microdilution method; format: functional
# [4] = Fraction unbound in human plasma at 10 uM after 5 hrs by rapid equilibrium dialysis method; format: ADME, cell-free
# Staphylococcus aureus [5] = assay: Antibacterial activity against methicillin-resistant and quinolone-resistant Staphylococcus aureus ARC 517 assessed as growth inhibition by broth microdilution method; format: functional
# Enterococcus faecalis = assay: Antibacterial activity against vancomycin-resistant Enterococcus faecalis ARC 1618 assessed as growth inhibition by broth microdilution method; format: functional
# [6] = Octanol-sodium phosphate buffer partition coefficient, log D of the compound at pH 7.4 by shake-flask method
# Staphylococcus aureus [7] = assay: Antibacterial activity against Staphylococcus aureus ARC 516 assessed as growth inhibition by broth microdilution method; format: functional
# [8] = In vivo clearance in Wistar rat at 5 to 10 mg/kg, iv administered as bolus dose; format: ADME, organism-based; set-up: dose 5-10 mg/kg, route intravenous
# Escherichia coli = assay: Antibacterial activity against Escherichia coli ARC 523 assessed as growth inhibition by broth microdilution method; format: functional
# [9] = Ratio of IC50 for human […] to IC50 for Staphylococcus aureus TMK
# Streptococcus pneumoniae = assay: Antibacterial activity against Streptococcus pneumoniae ARC 2481 assessed as growth inhibition by broth microdilution method; format: functional
# [10] = Fraction unbound in mouse plasma at 10 uM after 5 hrs by rapid equilibrium dialysis method; format: ADME, cell-free
# Pseudomonas aeruginosa = assay: Antibacterial activity against Pseudomonas aeruginosa ARC 545 assessed as growth inhibition by broth microdilution method; format: functional
# [11] = Cytotoxicity against human A549 cells; format: cell-based; settings: read-out: MIC
# Staphylococcus aureus [12] = assay: Antibacterial activity against Staphylococcus aureus assessed as bacterial killing at 0.5 to 1x MIC measured after 24 hrs; format: functional, organism-based
# Staphylococcus aureus [13] = assay: Antibacterial activity against Staphylococcus aureus assessed as log cell killing at greater than and equals to 0.5x MIC measured after 4 hrs; format: functional
# Staphylococcus aureus [14] = assay: Antibacterial activity against Staphylococcus aureus assessed as bacterial killing; format: functional, organism-based
# Staphylococcus aureus [15] = assay: Antibacterial activity against methicillin-sensitive Staphylococcus aureus ARC 516 in mouse neutropenic thigh infection model assessed as inhibition of progression of bacterial infection at 100 to 200 mg/kg/day, ip administered once daily starting 2 hrs after infection measured 24 hrs after drug dosing; format: functional, organism-based
# Staphylococcus aureus [16] = assay: Antibacterial activity against methicillin-sensitive Staphylococcus aureus ARC 516 in mouse neutropenic thigh infection model assessed as reduction in number of colony-forming units at 400 mg/kg/day, ip administered bid every 12 hrs as equal divided dose starting 2 hrs after infection measured 24 hrs after drug dosing relative to control; format: functional; settings: route intraperitoneal
# [17] = fT>MIC in mouse neutropenic thigh infection model infected with methicillin-sensitive Staphylococcus aureus ARC 516; set-up: species or system Thigh muscle
Compound,Retention_time [1],pIC50 [2],MIC (Staphylococcus aureus [5]),logD [6],MIC (Staphylococcus aureus [7]),other results
COc1c(C=O)ccc(Br)c1Oc1cccc(Cl)c1,3.28 min,,,,,
Cc1cn([C@H]2CCCN(C(CC(C)C)c3ccc(Br)c(F)c3F)C2)c(=O)[nH]c1=O (stereo partly specified),3.1 min,,,,,
Cc1cn([C@H]2CCCN(Cc3cccc(Oc4cccc(Cl)c4)c3)C2)c(=O)[nH]c1=O,,5.93,,,,
Cc1cn([C@H]2CCCN(Cc3cccc(Oc4cccc(Cl)c4)c3F)C2)c(=O)[nH]c1=O,2 min,7.07,,,,
Cc1cn([C@H]2CCCN([C@H](CC(C)C)c3ccc(C(=O)O)c(Oc4cccc(Cl)c4)c3F)C2)c(=O)[nH]c1=O,,9.00,0.5 mg/L,0.92,0.25 mg/L,"MIC90 (Streptococcus pyogenes): 2 mg/L; MIC [3]: 2 mg/L; MIC (Enterococcus faecium): 2 mg/L; fraction unbound at 5 h, 10 µM [4]: 0.013; MIC90 (Staphylococcus aureus [5]): 2 mg/L; MIC (Enterococcus faecalis): 8 mg/L; MIC90 (Staphylococcus aureus [7]): 2 mg/L; clearance [8]: 5.04 L/h/kg; MIC (Escherichia coli): > 64 mg/L; Ratio IC50 [9]: > 25000; MIC90 (Streptococcus pneumoniae): 0.13 mg/L; fraction unbound at 5 h, 10 µM [10]: < 0.01; MIC (Pseudomonas aeruginosa): > 64 mg/L"
CCC[C@H](c1ccc(C(=O)O)c(Oc2cccc(Cl)c2)c1)N1CCC[C@H](n2cc(C)c(=O)[nH]c2=O)C1,,8.10,1 mg/L,,1 mg/L,
Cc1cn([C@H]2CCCN(Cc3ccc(C(=O)O)c(Oc4cccc(Cl)c4)c3)C2)c(=O)[nH]c1=O,,7.14,32 mg/L,,32 mg/L,
CC[C@@H](c1ccc(C(=O)O)c(Oc2cccc(Cl)c2)c1OC)N1CCC[C@H](n2cc(C)c(=O)[nH]c2=O)C1,1.65 min,8.52,2 mg/L,-0.02,4 mg/L,"MIC90 (Streptococcus pyogenes): 4 mg/L; MIC [3]: 4 mg/L; MIC (Enterococcus faecium): 8 mg/L; fraction unbound at 5 h, 10 µM [4]: 0.11; MIC90 (Staphylococcus aureus [5]): 4 mg/L; MIC (Enterococcus faecalis): > 8 mg/L; MIC90 (Staphylococcus aureus [7]): 4 mg/L; clearance [8]: 4.38 L/h/kg; MIC (Escherichia coli): > 64 mg/L; Ratio IC50 [9]: > 25000; MIC90 (Streptococcus pneumoniae): 2 mg/L; fraction unbound at 5 h, 10 µM [10]: 0.011; MCC [11]: > 64 µg/mL; MIC (Pseudomonas aeruginosa): > 64 mg/L"
CCC[C@@H](c1ccc(C(=O)O)c(Oc2cccc(Cl)c2)c1F)N1CCC[C@H](n2cc(C)c(=O)[nH]c2=O)C1,1.86 min,8.52,0.5 mg/L,0.51,1 mg/L,"fraction unbound at 5 h, 10 µM [4]: 0.007; clearance [8]: 1.08 L/h/kg; fraction unbound at 5 h, 10 µM [10]: 0.007"
Cc1cn([C@H]2CCCN(Cc3ccc(C(=O)O)c(Oc4cccc(Cl)c4)c3F)C2)c(=O)[nH]c1=O,1.89 min,7.92,16 mg/L,-0.59,32 mg/L,
Cc1c(CN2CCC[C@H](n3cc(C)c(=O)[nH]c3=O)C2)cccc1Oc1cc(F)cc(Cl)c1,2.3 min,5.03,,,,
CCC[C@H](c1ccc(C(=O)O)c(Oc2cccc(Cl)c2)c1OC)N1CCC[C@H](n2cc(C)c(=O)[nH]c2=O)C1,2.18 min,7.52,> 16 mg/L,0.08,> 16 mg/L,"fraction unbound at 5 h, 10 µM [4]: 0.034"
COc1c(CN2CCC[C@H](n3cc(C)c(=O)[nH]c3=O)C2)ccc(C(=O)O)c1Oc1cccc(Cl)c1,2.17 min,8.00,16 mg/L,-0.77,8 mg/L,
CCC[C@@H](c1ccc(C(=O)O)c(Oc2cccc(Cl)c2)c1)N1CCC[C@H](n2cc(C)c(=O)[nH]c2=O)C1,,7.74,4 mg/L,,4 mg/L,
CCC[C@@H](c1ccc(C(=O)O)c(Oc2cccc(Cl)c2)c1OC)N1CCC[C@H](n2cc(C)c(=O)[nH]c2=O)C1,,8.40,4 mg/L,0.13,8 mg/L,"fraction unbound at 5 h, 10 µM [4]: 0.065"
CC(C)CC(O)c1ccc(Br)c(F)c1F (stereo unspecified),3.24 min,,,,,
Cc1cn([C@H]2CCCN(Cc3cccc(Oc4cc(F)cc(Cl)c4)c3)C2)c(=O)[nH]c1=O,,5.69,,,,
CCC[C@H](c1ccc(C(=O)O)c(Oc2cccc(Cl)c2)c1F)N1CCC[C@H](n2cc(C)c(=O)[nH]c2=O)C1,1.84 min,8.22,1 mg/L,0.53,2 mg/L,"fraction unbound at 5 h, 10 µM [4]: < 0.01; clearance [8]: 3.84 L/h/kg"
CC[C@H](c1ccc(C(=O)O)c(Oc2cccc(Cl)c2)c1F)N1CCC[C@H](n2cc(C)c(=O)[nH]c2=O)C1,1.75 min,8.70,2 mg/L,0.12,2 mg/L,"fraction unbound at 5 h, 10 µM [4]: < 0.01; clearance [8]: 7.14 L/h/kg"
CC[C@H](c1ccc(C(=O)O)c(Oc2cccc(Cl)c2)c1OC)N1CCC[C@H](n2cc(C)c(=O)[nH]c2=O)C1,1.55 min,7.16,> 16 mg/L,-0.13,> 16 mg/L,"fraction unbound at 5 h, 10 µM [4]: 0.015; clearance [8]: 5.04 L/h/kg; fraction unbound at 5 h, 10 µM [10]: 0.006"
CC[C@H](c1ccc(C(=O)O)c(Oc2cccc(Cl)c2)c1)N1CCC[C@H](n2cc(C)c(=O)[nH]c2=O)C1,,7.85,2 mg/L,0.22,2 mg/L,Activity (Staphylococcus aureus [12]): inactive; LCK (Staphylococcus aureus [13]): >3; Activity (Staphylococcus aureus [14]): Dose-dependent effect
CC[C@@H](c1ccc(C(=O)O)c(Oc2cccc(Cl)c2)c1)N1CCC[C@H](n2cc(C)c(=O)[nH]c2=O)C1,,7.74,4 mg/L,0.22,2 mg/L,
CC[C@@H](c1ccc(C(=O)O)c(Oc2cccc(Cl)c2)c1F)N1CCC[C@H](n2cc(C)c(=O)[nH]c2=O)C1,1.72 min,8.52,1 mg/L,0.11,4 mg/L,"fraction unbound at 5 h, 10 µM [4]: 0.011"
Cc1cn([C@H]2CCCN([C@H](CC(C)(C)C)c3ccc(C(=O)O)c(Oc4cccc(Br)c4)c3)C2)c(=O)[nH]c1=O,,9.10,,,,"MIC90 (Streptococcus pyogenes): 0.5 mg/L; MIC [3]: 2 mg/L; MIC (Enterococcus faecium): 0.25 mg/L; fraction unbound at 5 h, 10 µM [4]: 0.032; MIC90 (Staphylococcus aureus [5]): 1 mg/L; MIC (Enterococcus faecalis): 1 mg/L; MIC90 (Staphylococcus aureus [7]): 1 mg/L; clearance [8]: 2.52 L/h/kg; MIC (Escherichia coli): > 64 mg/L; Ratio IC50 [9]: > 25000; MIC90 (Streptococcus pneumoniae): 0.03 mg/L; fraction unbound at 5 h, 10 µM [10]: < 0.003; MCC [11]: > 64 µg/mL; MIC (Pseudomonas aeruginosa): > 64 mg/L"
Cc1cn([C@H]2CCCN([C@@H](CC(C)C)c3ccc(C(=O)O)c(Oc4cccc(Cl)c4)c3F)C2)c(=O)[nH]c1=O,2 min,9.00,0.5 mg/L,0.57,0.5 mg/L,"MIC (Streptococcus pyogenes): 2 mg/L; MIC [3]: 4 mg/L; MIC (Enterococcus faecium): 2 mg/L; fraction unbound at 5 h, 10 µM [4]: 0.007; MIC (Enterococcus faecalis): 4 mg/L; clearance [8]: 2.28 L/h/kg; MIC (Escherichia coli): > 64 mg/L; Ratio IC50 [9]: > 25000; inhibition (Staphylococcus aureus [15]): Active; fold change (FC) (Staphylococcus aureus [16]): 10; MIC90 (Streptococcus pneumoniae): 0.13 mg/L; fraction unbound at 5 h, 10 µM [10]: 0.005; fT>MIC [17]: 27%; MIC (Pseudomonas aeruginosa): > 64 mg/L"

# Continued, in another order:
Retention_time [1],Compound,pIC50 [2],MIC (Staphylococcus aureus [5]),logD [6],MIC (Staphylococcus aureus [7]),other results
2.31 min,Cc1cn([C@H]2CCCN(Cc3cccc(Oc4cc(F)cc(Cl)c4)c3Cl)C2)c(=O)[nH]c1=O,6.11,,,,
2.32 min,CCOc1c(CN2CCC[C@H](n3cc(C)c(=O)[nH]c3=O)C2)cccc1Oc1cc(F)cc(Cl)c1,6.20,,,,
2.41 min,CCC(c1ccc(Br)c(Oc2cccc(Cl)c2)c1OC)N1CCC[C@H](n2cc(C)c(=O)[nH]c2=O)C1 (stereo partly specified),,,,,
2.29 min,CCC(c1ccc(C(=O)O)c(Oc2cccc(Cl)c2)c1OC)N1CCC[C@H](n2cc(C)c(=O)[nH]c2=O)C1 (stereo partly specified),,,,,
2.62 min,Cc1cn([C@H]2CCCN(C(CC(C)C)c3ccc(C#N)c(Oc4cccc(Cl)c4)c3F)C2)c(=O)[nH]c1=O (stereo partly specified),,,,,
2.5 min,CCCc1c(CN2CCC[C@H](n3cc(C)c(=O)[nH]c3=O)C2)cccc1Oc1cc(F)cc(Cl)c1,4.17,,,,
3 min,COc1c(CN2CCC[C@H](n3cc(C)c(=O)[nH]c3=O)C2)cccc1Oc1cc(F)cc(Cl)c1,6.32,,,,
3.27 min,CCC(O)c1ccc(Br)c(Oc2cccc(Cl)c2)c1OC (stereo unspecified),,,,,
1.93 min,Cc1cn([C@H]2CCCN(C(CC(C)C)c3ccc(C#N)c(F)c3F)C2)c(=O)[nH]c1=O (stereo partly specified),,,,,
2.88 min,O=Cc1cccc(Oc2cccc(Cl)c2)c1F,,,,,
2.34 min,Cc1cn([C@H]2CCCN(Cc3cccc(Oc4cc(F)cc(Cl)c4)c3Br)C2)c(=O)[nH]c1=O,6.24,,,,
2.16 min,Cc1cn([C@H]2CCCN(Cc3cccc(Oc4cccc(Cl)c4)c3C#N)C2)c(=O)[nH]c1=O,5.92,,,,
1.23 min,O=Cc1cccc(O)c1F,,,,,
1.99 min,Cc1cn([C@H]2CCCN(C(CC(C)C)c3ccc(C(=O)O)c(Oc4cccc(Cl)c4)c3F)C2)c(=O)[nH]c1=O (stereo partly specified),,,,,
